From patent USRE40155E1, “Methods for treatment of benign and malignant tumors, including lymphomas, leukemias, and leiomyomas” (priority 1995, dated 2008)

Key:
[1] = system: fresh human promyelocytic leukemia cells (AML3); conditions: cited from earlier work
AML-3 patients = conditions: oral, alone; cited from earlier work
[2] = system: human promyelocytic leukemia (HL-60) cells; assay: Inhibition of proliferation of HL-60 cells, Trypan Blue cell counts; assay type: cell-based
Excerpt: Inhibition of proliferation by pirfenidone of human promyelocytic leukemia (HL-60) cells in vitro.
[…] Five ml of each pirfenidone concentration, and of the control were placed into a T25 tissue culture flask along with 1×10^5 cells. Every day for 4 days an aliquote from each flask was taken out, then stained with Trypan Blue, and counts were repeated three times on each aliquote.

[3] = system: human T-cell leukemia (JURKAT) cells; assay: MTS assay of JURKAT cell proliferation; assay type: cell-based; conditions: 900 mcg/ml, 72 hours
Protocol: Inhibition of proliferation by pirfenidone of human T-cell leukemia (JURKAT) cells in vitro.
(§1) To determine the inhibitory effect of pirfenidone concentrations on human T-cell leukemia (JURKAT), a MTS assay was used which incorporates a tetrazolium dye that measures the cellular conversion of the dye into a formazan product by the activation of NADH-generating dehydrogenases found in metabolically active cells.
(§2) 1. 100 microl. of cells was seeded into 96 well plates at 1×10^5 cells/ml in media containing 100 mcg/ml, 300 mcg/ml and 900 mcg/ml of pirfenidone, as well as a pirfenidone-free media control.
(§3) 2. Cells were incubated at 37 degrees C., at 5.0% CO2 for 72 hours.
(§4) 3. After incubation a standard curve was made of 100 microliters of cells added to the plate at 5×10^5 cells/ml making 1:2 dilutions all the way down to a pre-set degree of dilution.
(§5) 4. 2.0 mls of the MTS solution was mixed with a 100 microliter of the PMS solution, and 20 microliters of this combined dye solution was added to each well and incubated at 37 degrees C., 5.0% CO2 for 3 hours.
(§6) 5. Subsequently the absorbance was read at 490 nm.

[4] = system: human Burkitt's lymphoma (RAJI) cells; assay: MTS assay of RAJI cell proliferation; assay type: cell-based; conditions: 900 mcg/ml, 72 hours
Protocol: Inhibition of proliferation by pirfenidone of human Burkitt's lymphoma (RAJI) cells in vitro.
as §1, with “Burkitt's lymphoma (RAJI) cells,” for “human T-cell leukemia (JURKAT),”
as §2, §3, §4, §5, §6

human leiomyoma cells = assay: Leiomyoma cell proliferation, cell counts and Trypan Blue viability on day 7; assay type: cell-based
Protocol: Leiomyoma tissues were obtained from several premenopausal women with symptomatic uterine fibroids at elective hysterectomy, and who were not receiving any hormonal or other drug therapy. The fibroid tissues were minced into 1-2 mm# explants and placed in suitable DMEM supplemented with 10% bovine serum. The fibroid tissue was digested for 14-18 hours at 37 degrees C. in an incubator. After centrifugation, a resulting cell pellet was resuspended in DMEM and then placed in culture flasks. The cultures were maintained at 37 degrees centigrade in a humidified atmosphere of 5% CO2 and 95% air.
Leiomyoma cells were plated in 100 mm dishes (100,000 each dish) and allowed to attach overnight in DMEM plus 10% fetal bovine serum until they reached 80-90% confluence.

CC1=C(/C=C/C(C)=C/C=C/C(C)=C/C(=O)O)C(C)(C)CCC1 [All-trans-retinoic acid]
induction of differentiation in vitro [1]: differentiate in vitro to mature functional gramulocytes
clinical response (AML-3 patients): complete remission

Cc1ccc(=O)n(-c2ccccc2)c1 [pirfenidone]
toxic death of HL-60 cells ([2]; 900 micrograms/ml, after 3 and 4 days): without causing a toxic death of the cells
inhibition of proliferation and cell death of HL-60 cells ([2]; 1400 micrograms/ml): deaths of almost all cells
inhibition at 900 µg/mL ([2]; Homo sapiens, HL-60, 900 micrograms/ml, after 3 and 4 days): 63%
reduction in number of active JURKAT cells [3]: 75%
reduction in number of active RAJI cells [4]: 45%
CELL COUNTS (DAY 7) LEIOMYOMA (human leiomyoma cells; 0.01 MG/ML): 315,000
RECENT DEAD CELLS (DAY 7) LEIOMYOMA (human leiomyoma cells; 0.01 MG/ML): 8.0
CELL COUNTS (DAY 7) LEIOMYOMA (human leiomyoma cells; 0.1 MG/ML): 205,000
RECENT DEAD CELLS (DAY 7) LEIOMYOMA (human leiomyoma cells; 0.1 MG/ML): 10.0
CELL COUNTS (DAY 7) LEIOMYOMA (human leiomyoma cells; 0.3 MG/ML): 170,000
RECENT DEAD CELLS (DAY 7) LEIOMYOMA (human leiomyoma cells; 0.3 MG/ML): 6.0
CELL COUNTS (DAY 7) LEIOMYOMA (human leiomyoma cells; 1.0 MG/ML): 69,000
RECENT DEAD CELLS (DAY 7) LEIOMYOMA (human leiomyoma cells; 1.0 MG/ML): 16.0
percentage of dead leiomyoma cells (human leiomyoma cells; 1000 micrograms/ml): 16%
effect on proliferation of leiomyoma cells (human leiomyoma cells; graded concentrations in the culture media, 7 days (FIG. 4)): significant inhibitory effect
